Reference: US6861443B2, “Positive modulators of nicotinic receptors” (Astra AB, priority 1998, dated 2005)
Read-outs that look alike come from different tables or passages of the source.

Experiments:
nAChR α7 = nAChR α7 (Homo sapiens, UniProt P36544); settings: FIG. 6
Description: To screen for α7 modulatory activity, the 96 well plate is placed in a fluorescence imaging plate reader (FLIPR) and test compounds along with an α7 agonist are applied simultaneously to all wells. Receptor activation is measured by calcium influx into cells which is quantified by the increase in fluorescence intensity of each well, recorded simultaneously by the FLIPR. A modulatory effect is determined by the increase in fluorescence over that of agonist alone. Similarly, to test for nAChR α7 agonist activity, test compounds along with an α7 modulator are applied simultaneously to all wells. Receptor activation is measured by calcium influx into cells which is quantified by the increase in fluorescence intensity of each well, recorded simultaneously by the FLIPR. An agonist effect is determined by the increase in fluorescence over that of modulator alone.
Effect of nAChR α7 modulator on agonist activity was measured by Ca^2+ flux through nAChR α7 expressed in HEK-293 cells. The nicotinic agonist (−)-Spiro[1-Azabicyclo[2.2.2.]Octane-3,5*-Oxazolidine]-2*-One, was used.

[1] = biological target: mouse muscle-type nicotinic receptors (Mus musculus, UniProt P02716+P04756+P09690); assay: Efficacy enhancement on other nicotinic receptors; assay type: cell-based
α7-nicotinic receptor = assay: Two-electrode voltage-clamp current recording from Xenopus oocytes expressing α7-nicotinic receptors; assay type: cell-based, human, rat and chick
Description: (a) Xenopus Oocyte Current Recording
The Xenopus oocyte has provided a powerful means of assessing the function of proteins thought to be subunits of ligand-gated ion-channels.
Consequently, one convenient technique to assess the enhancement of nicotinic efficacy is two-electrode voltage-clamp recording from Xenopus oocytes expressing α7-nicotinic receptors from cRNA.
Oocytes were removed to OR2 solution (82 mM NaCl, 2.5 mM KCl, 5 mM HEPES, 1.5 mM NaH2PO4, 1 mM MgCl2, 0.1 mM EDTA; pH 7.4). The oocytes were defolliculated by incubation in 25 ml OR2 containing 0.2% collagenase 1A (Sigma) two times for 60 min on a platform vibrating at 1 Hz and stored in Leibovitz's L-15 medium (50 μg/ml gentomycin, 10 Units/ml penicillin, and 10 μg/ml streptomycin). Approximately 50 ng of cRNA was injected in each oocyte the following day. cRNA was synthesised from cDNA using Message Machine (purchased from Abion).
The external recording solution consisted of 90 mM NaCl, 1 mM KCl, 1 mM MgCl2, 1 mM BaCl2, 5 mM HEPES; pH 7.4. […] Oocytes were impaled with two electrodes of 1-2 MΩ tip resistance when filled with 3M KCl. Recordings were begun when membrane potential became stable at potentials negative to −20 mV (resting membrane potentials are less negative when Ba^++ replaces Ca^++ in bathing solutions). Membrane potential was clamped at −80 mV.
Current amplitude was measured from baseline to peak. EC50 values, maximal effect, and Hill slopes were estimated by fitting the data to the logistic equation using GraphPad Prism (GraphPad Software, Inc., San Diego, Calif.).
Increases in agonist efficacy elicited by a positive modulator can be calculated in two ways: • (1) As percent potentiation of current amplitude which is defined as 100(Im−Ic)/Ic where Im is current amplitude in the presence of modulator and Ic is current in the absence of modulator (FIG. 1). • (2) As percent potentiation of “area under curve” of an agonist trace. Area under the curve is a common representation of the total ion flux through the channel (FIG. 2).

5-HT3 receptors = settings: unpublished results / in press; cited from earlier work

nAChR α7, sequence (P36544 23-502): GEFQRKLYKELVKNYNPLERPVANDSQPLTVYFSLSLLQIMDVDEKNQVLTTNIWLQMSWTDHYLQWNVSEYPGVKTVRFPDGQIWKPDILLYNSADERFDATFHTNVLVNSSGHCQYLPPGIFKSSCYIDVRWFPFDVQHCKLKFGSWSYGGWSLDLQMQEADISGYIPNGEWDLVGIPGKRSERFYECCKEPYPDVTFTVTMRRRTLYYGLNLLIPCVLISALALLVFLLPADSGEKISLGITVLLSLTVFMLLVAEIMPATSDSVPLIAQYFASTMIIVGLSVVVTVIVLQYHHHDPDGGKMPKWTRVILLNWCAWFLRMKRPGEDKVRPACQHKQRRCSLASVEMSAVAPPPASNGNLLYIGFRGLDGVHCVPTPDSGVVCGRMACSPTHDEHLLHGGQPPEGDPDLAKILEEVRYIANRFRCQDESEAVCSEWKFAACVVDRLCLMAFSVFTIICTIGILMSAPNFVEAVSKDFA
mouse muscle-type nicotinic receptors, sequence (P04756 21-457): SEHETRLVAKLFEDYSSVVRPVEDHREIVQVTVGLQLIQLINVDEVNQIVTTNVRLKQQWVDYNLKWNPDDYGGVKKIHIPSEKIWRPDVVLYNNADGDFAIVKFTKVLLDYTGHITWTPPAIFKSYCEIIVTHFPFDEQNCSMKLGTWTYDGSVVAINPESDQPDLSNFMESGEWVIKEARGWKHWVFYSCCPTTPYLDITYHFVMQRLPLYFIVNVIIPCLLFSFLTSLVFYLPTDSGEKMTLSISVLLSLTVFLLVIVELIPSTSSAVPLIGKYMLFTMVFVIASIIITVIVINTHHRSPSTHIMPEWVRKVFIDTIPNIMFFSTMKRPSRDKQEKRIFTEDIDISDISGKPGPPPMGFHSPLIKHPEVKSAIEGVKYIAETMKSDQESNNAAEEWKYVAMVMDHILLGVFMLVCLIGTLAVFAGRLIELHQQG
mouse muscle-type nicotinic receptors, sequence (P09690 24-501): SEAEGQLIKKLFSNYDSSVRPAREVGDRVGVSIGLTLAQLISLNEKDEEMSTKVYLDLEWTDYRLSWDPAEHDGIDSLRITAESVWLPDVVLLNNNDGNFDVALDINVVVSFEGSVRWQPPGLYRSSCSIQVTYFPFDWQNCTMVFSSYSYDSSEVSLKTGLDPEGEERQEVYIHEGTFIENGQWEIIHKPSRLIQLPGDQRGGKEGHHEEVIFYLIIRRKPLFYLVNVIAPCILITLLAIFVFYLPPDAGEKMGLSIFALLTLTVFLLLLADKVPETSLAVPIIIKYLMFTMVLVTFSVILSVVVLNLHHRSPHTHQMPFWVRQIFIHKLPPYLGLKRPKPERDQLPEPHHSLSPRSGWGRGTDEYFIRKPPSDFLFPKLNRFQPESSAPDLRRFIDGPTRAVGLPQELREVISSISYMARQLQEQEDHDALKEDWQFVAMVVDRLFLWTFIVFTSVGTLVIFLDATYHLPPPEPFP
mouse muscle-type nicotinic receptors, sequence (P02716 25-520): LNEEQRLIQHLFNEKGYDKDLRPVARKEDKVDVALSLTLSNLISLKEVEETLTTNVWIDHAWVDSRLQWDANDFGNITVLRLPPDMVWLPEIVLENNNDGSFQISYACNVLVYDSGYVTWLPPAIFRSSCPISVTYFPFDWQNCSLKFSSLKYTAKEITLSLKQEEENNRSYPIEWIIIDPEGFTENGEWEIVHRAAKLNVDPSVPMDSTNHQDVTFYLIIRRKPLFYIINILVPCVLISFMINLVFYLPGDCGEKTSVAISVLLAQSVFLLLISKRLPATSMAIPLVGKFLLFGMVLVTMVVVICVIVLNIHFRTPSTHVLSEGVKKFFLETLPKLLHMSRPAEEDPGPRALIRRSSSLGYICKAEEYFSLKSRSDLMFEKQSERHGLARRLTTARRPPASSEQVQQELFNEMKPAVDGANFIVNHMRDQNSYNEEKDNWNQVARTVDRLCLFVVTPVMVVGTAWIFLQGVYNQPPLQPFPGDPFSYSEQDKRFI

O=C1NCC2(CN3CCC2CC3)O1 (single isomer, unassigned; (-))
agonist activity as Ca2+ flux signal, agonist alone (nAChR α7; no modulator): No discernible signal | agonist activity as Ca2+ flux signal, agonist together with modulator (nAChR α7; with nAChR α7 modulator): significant increase in agonist activity

Oc1ccc2[nH]ccc2c1 [5-hydroxyindole]
increase in efficacy on other nicotinic receptors [1]: not seen on any other nicotinic receptors | increase in area under the curve (α7-nicotinic receptor; 0.5 mM 5-OHi, saturating agonist (3 mM ACh), 1 second agonist application, FIG. 4): ~400% | increase of maximal response to ACh (maximum amplitude) (α7-nicotinic receptor; 5-hydroxyindole 500 μM against a range of ACh concentrations, FIG. 3): 2 fold | increase in efficacy of agonists at nicotinic receptors (α7-nicotinic receptor; general statement): greater than 2 fold | increase in efficacy of various nicotinic agonists afforded by 5-hydroxyindole (α7-nicotinic receptor; modulator 1 mM 5-OHi, ACh 3 mM, AR-R 17779 100 μM, FIG. 5): seen with all nicotinic agonists tested | current induced when applied by itself (α7-nicotinic receptor; no agonist, oocytes injected with cRNA for α7 nicotinic receptors): did not induce current

NCC(=O)O [Glycine]
effect on 5-HT3 receptors (5-HT3 receptors): no effect

NS(=O)(=O)c1cc2c(cc1Cl)NC(C1CC3C=CC1C3)NS2(=O)=O (stereo not drawn) [cyclothiazide]
effect on 5-HT3 receptors (5-HT3 receptors): block 5-HT3 receptors

NCCc1c[nH]c2ccc(O)cc12 [serotonin]
positive modulation on ACh activity (efficacy enhancing activity) (α7-nicotinic receptor): did not increase efficacy | positive modulation on ACh activity (efficacy enhancing activity) (α7-nicotinic receptor; listed as 5-HT): unable to reproduce the finding that 5-HT increases activity
